Results: patent US20100016213A1, “USE OF A DITERPENOID COMPOUND FOR TREATING DIABETES” (National Taiwan University, priority 2008, published 2010)

Legend:
Assay type in all cases: in vivo
[1] = test system: Diet-induced diabetic (NIDDM) mice; assay: Plasma insulin levels before and after treatment (Insulin ELISA), diet-induced diabetic mice; settings: 5.0 mg/kg i.p.; for Plasma insulin, Pre-treatment: before treatment; for Plasma insulin, post-treatment: one hour after treatment
Procedure: (§1) Normal mice, STZ-induced diabetic mice, and diet-induced diabetic mice were administered with a vehicle control, borapetoside A (5.0 mg/kg), borapetoside C (at various doses), glibenclamide (5.0 mg/kg) or metformin (500 mg/kg) by intraperitoneal injection. These mice were examined for their blood insulin levels before and one hour after treatment, using the Insulin(Rat) ELISA kit obtained from Penisula Lab. Inc., San Carlos, Calif., USA.

[2] = test system: normal mice; assay: Lowering plasma glucose level, intraperitoneal injection, normal mice; settings: normal mice, one hour after administration
Procedure: (§2) Normal and streptozotocin (STZ)-induced diabetic mice were administered with borapetoside A (5.0 mg/kg), borapetoside C (5.0 mg/kg), glibenclamide (5.0 mg/kg), metformin (500.0 mg/kg), or a vehicle control via intraperitoneal injection. STZ-induced diabetic mice are a well-known mouse model of type I diabetes (insulin dependent). See, e.g., Liu I M, et al., Neuroscience Letters 2001; 307: 81-84. Glibenclamide and metformin serve as two positive controls in this study.
(§3) The plasma glucose levels of the treated mice were determined before and one hour after administration. The activity of lowering plasma glucose levels (AL) is calculated following the formula: […]
(§4) Borapetoside C was administered to normal mice at 0.1, 1.0, 3.0, and 5.0 mg/kg and to STZ-diabetic mice at 0.1, 1.0, 3.0, and 5.0 mg/kg. The plasma glucose levels of the treated mice were examined before and after treatment.

[3] = test system: STZ-induced diabetic mice; assay: Lowering plasma glucose level, intraperitoneal injection, STZ-induced diabetic mice (type I diabetes model); settings: one hour after administration
Procedure: as §2, §3, §4

[4] = test system: STZ-diabetic mice (IDDM); assay: Plasma insulin levels before and after treatment (Insulin ELISA), STZ-diabetic mice; settings: for Plasma insulin, Pre-treatment: before treatment; for Plasma insulin, post-treatment: one hour after treatment
Procedure: as §1

[5] = test system: normal mice; assay: Plasma insulin levels before and after treatment (Insulin ELISA), normal mice; settings: 5.0 mg/kg i.p.; for Plasma insulin, Pre-treatment: before treatment; for Plasma insulin, post-treatment: one hour after treatment
Procedure: as §1

[6] = test system: DIO-induced diabetic mice; assay: Lowering plasma glucose level, intraperitoneal injection, diet-induced obesity diabetic mice (type II diabetes model); settings: one hour after administration
Procedure: Normal and diet-induced obesity diabetic mice (“DIO-induced diabetic mice) were administered with borapetoside A (5.0 mg/kg), borapetoside C (5.0 mg/kg), glibenclamide (5.0 mg/kg), metformin (500.0 mg/kg), or a vehicle control via intraperitoneal injection. DIO-induced diabetic mice are a well-known mouse model of type II diabetes (non-insulin dependent). See Liu et al., J Mol. Endocrinol. 2008.
The plasma glucose levels of the treated mice were determined before and one hour after administration. The activities of these compounds for lowering plasma glucose levels were calculated as described above.
Borapetoside C was administered to DIO-induced diabetic mice at 0.1, 1.0, 3.0, and 5.0 mg/kg and the plasma glucose levels were examined before and after administration. The basal plasma glucose concentration in diet-induced diabetic mice (untreated) was 174.6±7.7 mg/dL. One hour after treatment, the plasma glucose levels in mice treated with vehicle control, 0.1 mg/kg borapetoside C, 1.0 mg/kg borapetoside C, 3.0 mg/kg borapetoside C, and 5.0 mg/kg borapetoside C were 172.5±10.9 mg/dL, 170.5±6.8 mg/dL, 127.9±6.0 mg/dL, 121.3±4.3 mg/dL and 119.9±4.6 mg/dL, respectively.

[7] = test system: Normal ICR mice; assay: Intraperitoneal glucose tolerance test (IPGTT), normal ICR mice; settings: borapetoside C 5.0 mg/kg
Procedure: (§5) Normal ICR mice and DIO-induced diabetic mice, treated with borapetoside C (5.0 mg/kg), a vehicle control, or glibenclamide (positive control), were subjected to an intraperitoneal glucose tolerance test (IPGTT) as described in Lamont et al., Diabetes 2008; 57: 190-198. More specifically, glucose (2.0 mg/g body weight) was administered via IP injection to normal and DIO mice and blood samples were drawn from the treated mice before and 30, 60, 120, and 150 min after glucose administration for examination of glucose levels.
In normal mice treated with borapetoside C, the vehicle control, and glibenclamide, the basal plasma glucose concentrations were 106.8±4.7 mg/dL, 114.7±4.6 mg/dL, and 104.9±3.1 mg/dL, respectively. Thirty minutes after intraperitoneal glucose injection, the plasma glucose concentration was elevated to 346.2±14.7 mg/dL in vehicle-treated mice, to 292.9±10.9 mg/dL in borapetoside C-treated mice, or to 273.4±13.6 mg/dL in glibenclamide-treated mice.

[8] = test system: DIO-induced diabetic mice; assay: Intraperitoneal glucose tolerance test (IPGTT), DIO-induced diabetic mice; settings: diet-induced diabetic mice, borapetoside C 5.0 mg/kg
Procedure: as §5
In diet-induced diabetic mice treated with borapetoside C, the vehicle control, and glibenclamide, the basal plasma glucose concentrations were 181.6±12.3 mg/dL, 183.1±2.9 mg/dL, and 185.3±7.7 mg/dL, respectively. Thirty minutes after intraperitoneal glucose injection, the plasma glucose concentration was elevated to 405.6±8.9 mg/dL in vehicle-treated mice, to 343.5±11.2 mg/dL in borapetoside C-treated mice, or to 339.1±15.4 mg/dL in glibenclamide-treated mice.

[9] = test system: Diet-induced diabetic mice (NIDDM); assay: Lowering plasma glucose levels via oral administration, diet-induced diabetic mice; settings: oral 10.0 mg/kg, sixty minutes after treatment, mean ± SEM, six animals
Procedure: (§6) Normal, STZ-induced diabetic mice, and diet-induced diabetic mice were administered orally with 10.0 mg/kg borapetoside C, glibenclamide or metformin as a positive control, and a vehicle control. The plasma glucose levels of the treated mice were determined before and sixty minutes after treatment and the results thus obtained were shown in Table 3 below.

[10] = test system: normal mice; assay: Lowering plasma glucose levels via oral administration, normal mice; settings: oral 10.0 mg/kg, sixty minutes after treatment, mean ± SEM, six animals
Procedure: as §6

[11] = test system: normal mice; assay: Insulin sensitivity: plasma glucose reduction with insulin plus borapetoside C or vehicle, normal mice; settings: thirty minutes after insulin
Procedure: (§7) The effect of borapetoside C on insulin sensitivity was tested following the method described in Liu, et al., Clinical and Experimental Pharmacology and Physiology 2005; 32: 649-654. Normal mice (n=6), STZ-induced diabetic mice (n=5), and DIO-induced diabetic mice (n=7) were treated with insulin at various doses (i.e., 0.1 IU/kg, 0.5 IU/kg, and 1.0 IU/kg) together with either borapetoside C (0.1 mg/kg) or a vehicle control. Their plasma glucose levels were examined before and thirty minutes after insulin administration. The activity of lowering plasma glucose levels (AL) was calculated following the formula described in Example 2 above.

[12] = test system: DIO-induced diabetic mice(NIDDM); assay: Glycogen content in skeletal muscle, DIO-induced diabetic mice; settings: 30 minutes after injection
Procedure: (§8) Normal, STZ-induced diabetic, and DIO-induced diabetic mice were intraeritoneally injected with borapetoside C (5 mg/kg) and Actrapid (0.5 IU/kg; a short-acting insulin provided by Novo Nordisk) or metformin (500 mg/kg). Their glycogen contents in skeletal muscle were determined 30 minutes after injections.

[13] = test system: DIO-induced diabetic mice; assay: Insulin sensitivity: plasma glucose reduction with insulin plus borapetoside C or vehicle, DIO-induced diabetic mice; settings: thirty minutes after insulin
Procedure: as §7

[14] = test system: liver phosphoenolpyruvate carboxykinase (PEPCK); assay: Liver PEPCK levels by western blot in STZ-induced mice; settings: borapetoside C 5.0 mg/kg, twice per day for 7 days, insulin dose not given
Procedure: To characterize the effect of borapetoside C on liver glucose utilization, levels of liver phosphoenolpyruvate carboxykinase (PEPCK) were examined by western blot analysis in STZ-induced mice treated with borapetoside C (5.0 mg/kg, twice per day for 7 days), insulin, or a vehicle control.

[15] = test system: normal mice; assay: Glycogen content in skeletal muscle, normal mice; settings: 0.5 IU/kg i.p., 30 minutes after injection
Procedure: as §8

[16] = test system: STZ-induced diabetic mice; assay: Insulin sensitivity: plasma glucose reduction with insulin plus borapetoside C or vehicle, STZ-induced diabetic mice; settings: thirty minutes after insulin
Procedure: as §7

[17] = test system: STZ-diabetic mice(IDDM); assay: Glycogen content in skeletal muscle, STZ-diabetic mice; settings: 0.5 IU/kg i.p., 30 minutes after injection
Procedure: as §8

[18] = test system: STZ-diabetic mice (IDDM); assay: Lowering plasma glucose levels via oral administration, STZ-diabetic mice; settings: oral 500.0 mg/kg, sixty minutes after treatment, mean ± SEM, six animals
Procedure: as §6

[19] = 5.0 mg/kg intraperitoneal injection
[20] = Insulin 0.1 IU/kg together with Vehicle
[21] = Insulin 0.5 IU/kg together with Vehicle
[22] = Insulin 1.0 IU/kg together with Vehicle
[23] = 500.0 mg/kg intraperitoneal injection

For `C[C@@]12C[C@@H](c3ccoc3)OC(=O)[C@@H]1C[C@@H]1OC(=O)[C@@]3(O)[C@@H](O[C@@H]4O[C@H](CO)[C@@H](O)[C@H](O)[C@H]4O)CC[C@@H]2[C@@]13C` [borapetoside A], the “Plasma insulin, Pre-treatment” value [1] was 106.6 ± 14.6 pmol/L, the “Plasma insulin, post-treatment” value [1] was 173.8 ± 26.9 pmol/L and the “Activities of Lowering Plasma Glucose Levels (AL)” value [2, 19] was 49.4 ± 4.8%. For the same molecule, the “Activities of Lowering Plasma Glucose Levels (AL)” value [3, 19] was 54.3 ± 6.3%, the “Plasma insulin, Pre-treatment” value ([4]; 5.0 mg/kg i.p.) was 16.0 ± 4.1 pmol/L and the “Plasma insulin, post-treatment” value ([4]; 5.0 mg/kg i.p.) was 18.7 ± 8.4 pmol/L. For the same molecule, the “Plasma insulin, Pre-treatment” value [5] was 56.0 ± 2.8 pmol/L, the “Plasma insulin, post-treatment” value [5] was 117.6 ± 10.8 pmol/L and the “AL (activity of lowering plasma glucose levels)” value [6, 19] was 29.7±6.1%.
`COc1ccc(Cl)cc1C(=O)NCCc1ccc(S(=O)(=O)NC(=O)NC2CCCCC2)cc1` [glibenclamide, reference compound] was tested, and the “basal plasma glucose concentration (IPGTT)” value ([7]; before glucose injection) was 104.9 ± 3.1 mg/dL, the “plasma glucose concentration thirty minutes after intraperitoneal glucose injection (IPGTT)” value ([7]; glucose 2.0 mg/g body weight IP, vehicle 346.2±14.7) was 273.4 ± 13.6 mg/dL and the “Plasma insulin, Pre-treatment” value [1] was 119.3 ± 9.6 pmol/L. For the same molecule, the “Plasma insulin, post-treatment” value [1] was 197.0 ± 18.8 pmol/L, the “Activities of Lowering Plasma Glucose Levels (AL)” value [2, 19] was 19.3 ± 1.6% and the “Activities of Lowering Plasma Glucose Levels (AL)” value [3, 19] was 3.2 ± 1.9%. For the same molecule, the “basal plasma glucose concentration (IPGTT)” value ([8]; before glucose injection) was 185.3 ± 7.7 mg/dL, the “plasma glucose concentration thirty minutes after intraperitoneal glucose injection (IPGTT)” value ([8]; glucose 2.0 mg/g body weight IP, vehicle 405.6±8.9) was 339.1 ± 15.4 mg/dL and the “Activity of lowing plasma glucose levels (%)” value (“Activity … (%)” below) [9] was 34.9 ± 4.0 %. For the same molecule, the “Plasma insulin, Pre-treatment” value [5] was 50.8 ± 3.6 pmol/L, the “Plasma insulin, post-treatment” value [5] was 149.5 ± 15.0 pmol/L and the “AL (activity of lowering plasma glucose levels)” value [6, 19] was 25.8±2.1%. The “Activity … (%)” value [10] was 25.9 ± 3.5 %.
For “Insulin: Actrapid, a short-acting insulin provided by Novo Nordisk [reference compound]”, the “AL (%)” value [11, 20] was 14.6 ± 0.8%, the “AL (%)” value [11, 21] was 37.5 ± 1.1% and the “AL (%)” value [11, 22] was 56.8 ± 1.9%. For the same molecule, the “Glycogen content (μmol/g wet weight)” value ([12]; 0.5 IU/kg i.p.) was 20.2 ± 0.6 μmol/g wet weight, the “AL (%)” value [13, 20] was 19.5 ± 1.5% and the “AL (%)” value [13, 21] was 27.5 ± 2.6%. For the same molecule, the “AL (%)” value [13, 22] was 32.0 ± 1.1%, the “liver PEPCK levels versus vehicle control-treated mice (western blot)” value [14] was “much lower” and the “Glycogen content (μmol/g wet weight)” value [15] was 30.2 ± 2.0 μmol/g wet weight. For the same molecule, the “AL (%)” value [16, 20] was 8.7 ± 1.6%, the “AL (%)” value [16, 21] was 11.5 ± 0.6% and the “AL (%)” value [16, 22] was 24.0 ± 1.3%. For the same molecule, the “Glycogen content (μmol/g wet weight)” value [17] was 30.0 ± 1.0 μmol/g wet weight.
`CN(C)C(=N)N=C(N)N` [metformin, reference compound] was tested, and the “Glycogen content (μmol/g wet weight)” value ([12]; 500 mg/kg i.p.) was 23.5 ± 0.9 μmol/g wet weight, the “Activity … (%)” value [18] was 18.1 ± 1.9 % and the “Activities of Lowering Plasma Glucose Levels (AL)” value [2, 23] was 20.0 ± 2.5%. For the same molecule, the “Activities of Lowering Plasma Glucose Levels (AL)” value ([3]; intraperitoneal injection) was 34.1 ± 5.5%, the “Plasma insulin, post-treatment” value ([4]; 500 mg/kg i.p.) was 15.1 ± 1.5 pmol/L and the “Plasma insulin, Pre-treatment” value [4] was 13.5 ± 1.1 pmol/L. The “AL (activity of lowering plasma glucose levels)” value [6, 23] was 30.7±0.6%.
